{"source": "patent EP1761537B1", "about": "“PYRROLO[2,1-C][1,4]BENZODIAZEPINE-NAPTHALIMIDE […] THROUGH […] AND PROCESS FOR PREPARATION THEREOF” (Council of Scientific and Industrial Research, priority 2004, dated 2006)", "key": {"CT-DNA": {"tested_on": "CT-DNA", "experiment": "DNA Thermal Denaturation Studies", "format": "binding", "settings": "1:5 molar ratio [PBD]/[DNA], CT-DNA 100 µM, ligand 20 µM, 10 mM sodium phosphate + 1 mM EDTA, pH 7.00", "method": "For CT-DNA alone at pH 7.00 ± 0.01, Tm = 69.8 °C ± 0.01 (mean value from 10 separate determinations), all ΔTm values are ± 0.1 - 0.2 °C. For a 1:5 molar ratio of [PBD]/[DNA], where CT-DNA concentration = 100 µM and ligand concentration = 20 µM in aqueous sodium phosphate buffer [10 mM sodium phosphate + 1 mM EDTA, pH 7.00 ± 0.01]."}, "HT-29": {"tested_on": "HT-29", "experiment": "In vitro cytotoxicity against human cancer cell lines (sulforhodamine B)", "format": "cell-based", "settings": "HT-29 (colon), 48 hours, read-out: percentage growth inhibition; for inhibition at 100 µM: 10^-4 mol/L; for inhibition at 10 µM: 10^-5 mol/L; for inhibition at 1 µM: 10^-6 mol/L", "method": "(§1) In vitro cytotoxicity against human cancer cell lines: The human cancer cell lines procured from National Cancer Institute, Frederick, U.S.A or National Center for Cell Science; Pune, India. were used in present study. Cells were grown in tissue culture flasks in complete growth medium (RPMI-1640 medium with 2 mM glutamine, 100 µg/ml streptomycin, pH 7.4, sterilized by filtration and supplemented with 10% fetal calf serum and 100 units/ml penicillin before use) at 37°C in an atmosphere of 5% CO2 and 90% relative humidity in a carbon dioxide incubator. The cells at subconfluent stage were harvested from the flask by treatment with trypsin (0.5% in PBS containing 0.02% EDTA) for determination of cytotoxicity. Cells with viability of more than 98% as determined by trypan blue exclusion were used for assay. The cell suspension of the required cell density were prepared in complete growth medium with gentamycin (50µg/ml) for determination of cytotoxicity.\n(§2) A stock solutions of (2 X 10^-2 M) of test material were prepared in DMSO . The stock solutions were serially diluted with complete growth medium containing 50µg/ml of gentamycin to obtain working test solutions of required concentrations.\n(§3) In vitro cytotoxicity against human cancer cell lines was determined (Monks, A., Scudiero, D., Skehan, P, Shoemaker R, Paull, K., Vistica, D., Hose, C., Langley, J., Cronise, P., Vaigro-Wolff, A., Gray-Goodrich, M.; Campbell,H., Mayo, J and Boyd M. J. Natl. Cancer Inst.,1991,83, 757-766) using 96-well tissue culture plates. The 100 µl of cell suspension was added to each well of the 96-well tissue culture plate. The cells were incubated for 24 hours. Test materials in complete growth medium (100µl) were added after 24 hours incubation to the wells containing cell suspension. The plates were further incubated for 48 hours (at 37°C in an atmosphere of 5% and 90% relative humidity in a carbon dioxide incubator) after addition of test material and then the cell growth was stopped by gently layering trichloroacetic acid (TCA, 50µl, 50%) on top of the medium in all the wells. The plates were incubated at 4°C for one hour to fix the cells attached to the bottom of the wells. The liquid of all the wells was gently pipetted out and discarded. The plates were washed five times with distilled water to remove TCA, growth medium low molecular weight metabolites, serum proteins etc and air-dried. Cell growth was measured by staining with sulforhodamine B dye (Skehan et al., 1990). The adsorbed dye was dissolved in Tris-Buffer ([…], 0.01M, pH 10.4) and plates were gently stirred for 5 minutes on a mechanical stirrer. The optical density was recorded on ELISA reader at 540 nm.\n(§4) The cell growth was calculated by subtracting mean OD value of respective blank from the mean OD value of experimental set. Percent growth in presence of test material was calculated considering the growth in absence of any test material as 100% and in turn percent growth inhibition in presence of test material will be calculated."}, "HOP-62": {"tested_on": "HOP-62", "experiment": "In vitro cytotoxicity against human cancer cell lines (sulforhodamine B)", "format": "cell-based", "settings": "HOP-62 (lung), 48 hours, read-out: percentage growth inhibition; for inhibition at 10 µM: 10^-5 mol/L; for inhibition at 1 µM: 10^-6 mol/L", "method": "as §1, §2, §3, §4"}, "SiHa": {"tested_on": "SiHa", "experiment": "In vitro cytotoxicity against human cancer cell lines (sulforhodamine B)", "format": "cell-based", "settings": "SiHa (cervix), 48 hours, read-out: percentage growth inhibition; for inhibition at 100 µM: 10^-4 mol/L; for inhibition at 10 µM: 10^-5 mol/L; for inhibition at 1 µM: 10^-6 mol/L", "method": "as §1, §2, §3, §4"}, "A-549": {"tested_on": "A-549", "experiment": "In vitro cytotoxicity against human cancer cell lines (sulforhodamine B)", "format": "cell-based", "settings": "A549, A-549 (lung), 48 hours, read-out: percentage growth inhibition; for inhibition at 100 µM: 10^-4 mol/L", "method": "as §1, §2, §3, §4"}, "HCT-15": {"tested_on": "HCT-15", "experiment": "In vitro cytotoxicity against human cancer cell lines (sulforhodamine B)", "format": "cell-based", "settings": "HCT-15 (colon), 48 hours, read-out: percentage growth inhibition; for inhibition at 10 µM: 10^-5 mol/L; for inhibition at 1 µM: 10^-6 mol/L", "method": "as §1, §2, §3, §4"}}, "data": [{"molecule": "COc1cc2c(cc1OCCN1CCN(CCN3C(=O)c4cccc5cccc(c45)C3=O)CC1)N=C[C@@H]1CCCN1C2=O", "note": "[VIIIa, 7-Methoxy-8-{2-[4-[2-(1,3-dioxo-benz[de]isoquinolin-2-yl)ethyl]piperazin-1=yl]ethyl}-oxy-(11aS)-1,2,3,11a tetrahydro-5H-pyrrolo [2,1-c][1,4]benzodiazepin-5-one]", "values": [{"measurement": "Induced […]Tm °C after incubation at 37 °C", "setting": "CT-DNA; 0 h incubation at 37 °C", "value": 21.9, "unit": "°C"}, {"measurement": "Induced […]Tm °C after incubation at 37 °C", "setting": "CT-DNA; 18 h incubation at 37 °C", "value": 22.7, "unit": "°C"}]}, {"molecule": "COc1cc2c(cc1OCCCN1CCN(CCCN3C(=O)c4cccc5cccc(c45)C3=O)CC1)N=C[C@@H]1CCCN1C2=O", "note": "[VIIId, 7-Methoxy-8-{3-[4-[3-(1,3-dioxo-benz[de]isoquinolin-2-yl)propyl]piperazin-1-yl]propyl}-oxy-(11aS)-1,2,3,11a tetrahydro-5H-pyrrolo [2,1-c][1,4]benzodiazepin-5-one]", "values": [{"measurement": "inhibition at 100 µM", "setting": "HT-29", "value": 95, "unit": "%"}, {"measurement": "inhibition at 10 µM", "setting": "HT-29", "value": 62, "unit": "%"}, {"measurement": "inhibition at 1 µM", "setting": "HT-29", "value": 63, "unit": "%"}, {"measurement": "inhibition at 100 µM", "setting": "HOP-62; 10^-4 mol/L", "value": 78, "unit": "%"}, {"measurement": "inhibition at 100 µM", "setting": "SiHa", "value": 85, "unit": "%"}, {"measurement": "inhibition at 10 µM", "setting": "SiHa", "value": 65, "unit": "%"}, {"measurement": "inhibition at 1 µM", "setting": "SiHa", "value": 31, "unit": "%"}, {"measurement": "inhibition at 100 µM", "setting": "A-549", "value": 95, "unit": "%"}, {"measurement": "inhibition at 10 µM", "setting": "A-549; 10^-5 mol/L", "value": 30, "unit": "%"}, {"measurement": "inhibition at 1 µM", "setting": "A-549; 10^-6 mol/L", "value": 51, "unit": "%"}, {"measurement": "Induced […]Tm °C after incubation at 37 °C", "setting": "CT-DNA; 0 h incubation at 37 °C", "value": 13.1, "unit": "°C"}, {"measurement": "Induced […]Tm °C after incubation at 37 °C", "setting": "CT-DNA; 18 h incubation at 37 °C", "value": 14.3, "unit": "°C"}]}, {"molecule": "COc1cc2c(cc1O)N=CC1CCCN1C2=O", "note": "(centres unmarked) [DC-81, reference compound]", "values": [{"measurement": "Induced […]Tm °C after incubation at 37 °C", "setting": "CT-DNA; 0 h incubation at 37 °C", "value": 0.3, "unit": "°C"}, {"measurement": "Induced […]Tm °C after incubation at 37 °C", "setting": "CT-DNA; 18 h incubation at 37 °C", "value": 0.7, "unit": "°C"}]}, {"molecule": "COc1cc2c(cc1OCCCCN1CCN(CCCCN3C(=O)c4cccc5cccc(c45)C3=O)CC1)N=C[C@@H]1CCCN1C2=O", "note": "[VIIIe, 7-Methoxy-8-{4-[4-[4-(1,3-dioxo-benz[de]isoquinolin-2-yl)butyl]piperazin-1-yl]butyl}-oxy-(11aS)-1,2,3,11a tetrahydro-5H-pyrrolo [2,1-c][1,4]benzodiazepin-5-one]", "values": [{"measurement": "inhibition at 100 µM", "setting": "HT-29", "value": 92, "unit": "%"}, {"measurement": "inhibition at 10 µM", "setting": "HT-29", "value": 78, "unit": "%"}, {"measurement": "inhibition at 1 µM", "setting": "HT-29", "value": 67, "unit": "%"}, {"measurement": "inhibition at 10 µM", "setting": "HCT-15", "value": 62, "unit": "%"}, {"measurement": "inhibition at 1 µM", "setting": "HCT-15", "value": 59, "unit": "%"}, {"measurement": "inhibition at 10 µM", "setting": "HOP-62", "value": 93, "unit": "%"}, {"measurement": "inhibition at 1 µM", "setting": "HOP-62", "value": 80, "unit": "%"}, {"measurement": "inhibition at 100 µM", "setting": "SiHa", "value": 42, "unit": "%"}, {"measurement": "inhibition at 10 µM", "setting": "SiHa", "value": 40, "unit": "%"}, {"measurement": "inhibition at 1 µM", "setting": "SiHa", "value": 44, "unit": "%"}, {"measurement": "inhibition at 100 µM", "setting": "A-549", "value": 93, "unit": "%"}, {"measurement": "Induced […]Tm °C after incubation at 37 °C", "setting": "CT-DNA; 0 h incubation at 37 °C", "value": 20.9, "unit": "°C"}, {"measurement": "Induced […]Tm °C after incubation at 37 °C", "setting": "CT-DNA; 18 h incubation at 37 °C", "value": 21.7, "unit": "°C"}]}, {"molecule": "COc1cc2c(cc1OCCCN1CCN(CCN3C(=O)c4cccc5cccc(c45)C3=O)CC1)N=C[C@@H]1CCCN1C2=O", "note": "[VIIIb, 7-Methoxy-8-{3-[4-[2-(1,3-dioxo-benz[de]isoquinolin-2-yl)ethyl]piperazin-1-yl]propyl}-oxy-(11aS)-1,2,3,11a tetrahydro-5H-pyrrolo [2,1-c][1,4]benzodiazepin-5-one]", "values": [{"measurement": "inhibition at 100 µM", "setting": "HT-29", "value": 88, "unit": "%"}, {"measurement": "inhibition at 10 µM", "setting": "HT-29", "value": 85, "unit": "%"}, {"measurement": "inhibition at 1 µM", "setting": "HT-29", "value": 91, "unit": "%"}, {"measurement": "inhibition at 10 µM", "setting": "HCT-15", "value": 59, "unit": "%"}, {"measurement": "inhibition at 1 µM", "setting": "HCT-15", "value": 58, "unit": "%"}, {"measurement": "inhibition at 10 µM", "setting": "HOP-62", "value": 86, "unit": "%"}, {"measurement": "inhibition at 1 µM", "setting": "HOP-62", "value": 72, "unit": "%"}, {"measurement": "inhibition at 10 µM", "setting": "SiHa", "value": 44, "unit": "%"}, {"measurement": "inhibition at 1 µM", "setting": "SiHa", "value": 54, "unit": "%"}, {"measurement": "inhibition at 100 µM", "setting": "A-549", "value": 88, "unit": "%"}, {"measurement": "Induced […]Tm °C after incubation at 37 °C", "setting": "CT-DNA; 0 h incubation at 37 °C", "value": 25.8, "unit": "°C"}, {"measurement": "Induced […]Tm °C after incubation at 37 °C", "setting": "CT-DNA; 18 h incubation at 37 °C", "value": 26.7, "unit": "°C"}]}, {"molecule": "COc1cc2c(cc1OCCCCN1CCN(CCN3C(=O)c4cccc5cccc(c45)C3=O)CC1)N=C[C@@H]1CCCN1C2=O", "note": "[VIIIc, 7-Methoxy-8-{4-[4-[2-(1,3-dioxo-benz[de]isoquinolin-2-yl)ethyl]piperazin-1-yl]butyl}-oxy-(11aS)-1,2,3,11a tetrahydro-5H-pyrrolo [2,1-c][1,4]benzodiazepin-5-one]", "values": [{"measurement": "inhibition at 100 µM", "setting": "HT-29", "value": 94, "unit": "%"}, {"measurement": "inhibition at 10 µM", "setting": "HT-29", "value": 86, "unit": "%"}, {"measurement": "inhibition at 1 µM", "setting": "HT-29", "value": 80, "unit": "%"}, {"measurement": "inhibition at 10 µM", "setting": "HCT-15", "value": 69, "unit": "%"}, {"measurement": "inhibition at 1 µM", "setting": "HCT-15", "value": 60, "unit": "%"}, {"measurement": "inhibition at 10 µM", "setting": "HOP-62", "value": 93, "unit": "%"}, {"measurement": "inhibition at 1 µM", "setting": "HOP-62", "value": 86, "unit": "%"}, {"measurement": "inhibition at 100 µM", "setting": "SiHa", "value": 56, "unit": "%"}, {"measurement": "inhibition at 10 µM", "setting": "SiHa", "value": 39, "unit": "%"}, {"measurement": "inhibition at 100 µM", "setting": "A-549", "value": 95, "unit": "%"}, {"measurement": "Induced […]Tm °C after incubation at 37 °C", "setting": "CT-DNA; 0 h incubation at 37 °C", "value": 23.4, "unit": "°C"}, {"measurement": "Induced […]Tm °C after incubation at 37 °C", "setting": "CT-DNA; 18 h incubation at 37 °C", "value": 24.2, "unit": "°C"}]}]}
